The values below come from PMC3974779, “Pterostilbene-Isothiocyanate Conjugate Suppresses Growth of Prostate Cancer Cells Irrespective of Androgen Receptor Status” (PLoS ONE, 2014).

One may read the inhibition as the change of the read-out against control, counted positive when it falls.

Assay [1] deals with LNCaP cells. The experiment in a line: Cell cycle distribution by flow cytometry. The format is cell-based, human. The procedure: Cell cycle distribution and Annexin V/Propidium iodide (PI) positive cells were analyzed using flow cytometry. In brief, first the cells were seeded and treated with 0, 10, 20 and 40 μM conjugate in complete medium for 24 h. This was followed by trypsinizing and fixing in 70% ethanol, and finally washing with PBS. Subsequently, the cells were treated with RNase A (50 μg/ml), stained with PI (50 μg/ml) and incubated in the dark for 30 min at room temperature and analyzed by flow cytometry for cell cycle distribution. For apoptosis, the conjugate treated cells were stained with Alexa-Fluor 488-conjugated Annexin-V using the Vybrant-Apoptosis Assay Kit from Invitrogen (USA) as per the manufacturer’s protocol. The stained cells were then analyzed by fluorescence activated cell sorting (FACS Calibur, BD Biosciences, San Jose, CA, USA) and the data were standardized using Cell Quest 3.3 software.

The target of assay [2] is T1, androgen receptor in LNCaP cells (Homo sapiens, UniProt P10275, T878A).
T1 construct: LNCaP cells, that express endogenous AR; endogenous in cells; host or cells: LNCaP
T1 sequence (P10275 1-920 T878A): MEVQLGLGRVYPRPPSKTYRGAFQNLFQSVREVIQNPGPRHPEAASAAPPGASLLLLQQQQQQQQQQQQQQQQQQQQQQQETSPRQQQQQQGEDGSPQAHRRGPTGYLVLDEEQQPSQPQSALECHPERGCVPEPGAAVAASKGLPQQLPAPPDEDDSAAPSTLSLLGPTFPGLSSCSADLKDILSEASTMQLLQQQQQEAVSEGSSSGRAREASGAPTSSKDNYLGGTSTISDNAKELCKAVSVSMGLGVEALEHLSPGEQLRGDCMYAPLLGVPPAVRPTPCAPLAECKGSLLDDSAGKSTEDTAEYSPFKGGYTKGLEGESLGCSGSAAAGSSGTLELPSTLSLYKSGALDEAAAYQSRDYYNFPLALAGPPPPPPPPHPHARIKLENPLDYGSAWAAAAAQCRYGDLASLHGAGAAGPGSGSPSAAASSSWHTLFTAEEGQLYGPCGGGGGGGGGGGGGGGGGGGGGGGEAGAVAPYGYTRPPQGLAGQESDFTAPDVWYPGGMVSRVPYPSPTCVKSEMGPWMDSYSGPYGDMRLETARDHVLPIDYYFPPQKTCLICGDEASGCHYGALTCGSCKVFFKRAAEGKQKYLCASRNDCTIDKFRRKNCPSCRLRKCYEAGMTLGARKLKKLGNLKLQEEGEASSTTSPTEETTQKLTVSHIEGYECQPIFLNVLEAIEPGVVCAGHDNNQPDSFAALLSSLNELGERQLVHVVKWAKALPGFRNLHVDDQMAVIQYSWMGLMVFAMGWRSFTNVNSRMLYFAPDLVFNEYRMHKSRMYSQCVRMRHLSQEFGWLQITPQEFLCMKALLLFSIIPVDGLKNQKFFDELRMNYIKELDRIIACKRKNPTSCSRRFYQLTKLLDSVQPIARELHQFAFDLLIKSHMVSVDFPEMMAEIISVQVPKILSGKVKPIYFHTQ
Description: AR transactivation luciferase assay (pMMTV-luc). The format is cell-based. How it is done: The LNCaP cells were grown and transiently transfected with pMMTV-neomycin-luciferase plasmid (300 ng/10^5 cells) in RPMI media supplemented with 10% FBS using polyfect transfection reagent (Qiagen, CA, USA) according to manufacturer’s instructions. Then, 24 h after transfection, the cell culture media were changed with media containing 5% charcoal-stripped FBS to reduce the contaminating steroids from the serum and incubated for an additional day before initiating the treatments. In case of PC-3 cells, they were similarly transfected, but in addition to pMMTV-neomycin-luciferase construct, they were also transfected with pSG5-hAR-puro plasmid (full length hAR in pSG5 expression vector) in the ratio of 5∶1 as indicated above. For experiments involving co-regulators, 50 ng of co-activator plasmids (25 ng each of GRIP-1 and SRC-1) along with pMMTV-neo-luc (250 ng) were transfected to LNCaP cells. To evaluate the transfection efficiency, 500 ng/105 cells of the SV40 promoter-Renilla luciferase (pRL-SV40) vector (Promega Madison, USA) were co-transfected as internal control. […] Each experimental point was performed in triplicate and varied by less than 10%. The values of luciferase for each lysates were normalized to the Renilla luciferase activity.

In assay [3] the test system is p53 protein in LNCaP cells. The experiment in a line: Immunoblot of p53 with p53 inhibitor. The format is cell-based, human. As to conditions: 20 μM PFT-α, 20 and 40 μM conjugate, 24 h. The procedure: The whole-cell lysates were prepared as described previously in immunoprecipitation (IP) buffer containing 50 mM Tris-HCl (pH 8.0), 150 mM NaCl, 5 mM EDTA, and 1% Triton X-100. Protein aliquots of 500 μg were then incubated overnight at 4°C using 2 μg of antibody directed against AR. The Protein A-Cl Agarose beads were then added and further incubated for 6 h at 4°C. The immunoprecipitates were washed four times with the IP buffer and the immunocomplexes were recovered by boiling in SDS sample buffer. Finally the western blot was carried out using anti-AR, anti-SRC-1 and anti-GRIP-1 antibodies (Santa Cruz, CA, USA). For western blot analysis, the cell lysates were prepared after harvesting them in lysis buffer. About 40 μg of total protein was electrophoresed by 12% SDS-PAGE, and the western blotting was carried out using standard protocol. In brief, the analyzed proteins were transferred to nylon membranes. […]
Since there was no significant difference in the number of apoptotic cells between conjugate treated LNCaP (wild type p53) and PC-3 (p53 null) cells (p<0.05), it was intriguing to check if p53 has any role in conjugate induced apoptosis of PCa cells. […] Next we determined the effect of p53-inhibition on conjugate induced cell death by using MTT assay.

With `COc1cc(/C=C/c2ccc(O)c(/C=N/NC(N)=S)c2)cc(OC)c1` [conjugate, Pterostilbene-isothiocyanate conjugate], in assay [1] (increasing doses of conjugate, 24 h), the “accumulation of cells in G2/M phase” value is 16–35%. Moreover, in assay [1] (treated cells, 24 h (control 11%)), the “cells in G2/M phase” value is 35%. For the same compound, the “transcriptional activation by compound alone” value in assay [2] (1–40 μM, without DHT) is “did not induce transcriptional activation”. Also, the inhibition at 40 µM in assay [2] (read-out: inhibition of androgen-induced transactivation) is around 73%. The “expression of p53 protein” value in assay [3] was “dose dependent increase”.
